Legend:
[1] = system: normal lung cell versus cancerous lung cell; conditions: general statement, no reference given; cited from earlier work
Text: IC50 is the chemical concentration that produces 50% cell survival. The selectivity index of a lung cancer drug is a measure of how specific its killing action is to cancer cells. It is the ratio of its IC50 for a normal lung cell to its IC50 for a cancerous lung cell.

[2] = 100 mg/m^2 in a three-week cycle; cited from earlier work
Procedure: Drugs presently in use to combat lung cancers have severe side effects because their toxicity is not sufficiently selective to cancer cells. For example, docetaxel administered at a dose of 100 mg/m^2 in a three-week cycle causes haematological toxicity (86% patients having grade 3 or 4 neutropenia).

[3] = system: human NCI-H460 cancer cells xenograft; experiment: Nude mouse xenograft, post-treatment-only, comparison with docetaxel; conditions: for Mean tumor volume at week 4: 0.012 mmol/kg i.v. (CB1a 50 mg/kg, docetaxel 10 mg/kg), saline 5,400 mm^3; for Mean tumor volume at week 4 / Mean body weight at week 4 / Mean tumor weight as % of that in saline treated mice: 5 injections per week for 4 weeks; for Body weight course: compared with saline treated mice; for Mean body weight at week 5: data not shown; for Mean tumor weight as % of that in saline treated mice: week 4, sacrificed
[4] = system: MRC-5 normal cells; experiment: Cell plate growth study, photographed; type: cell-based, human; conditions: 50 µM CB1a added after 4 days, photographed after 24 hours, 2×10^3 cells at start
Procedure: (§1) NCI-H460 cancer cells were grown on two cell plates (2×10^3 cells at start in each) – after 4 days, CB1a (50 µM) was added to one and not the other. […] This experiment was repeated but with normal cells. MRC-5 normal cells were grown on two cell plates (2×10^3 cells at start in each) – after 4 days, CB1a (50 µM) was added to one and not the other.
(§2) Photos A and B show without and with CB1a (50 µM), on NCI-H460 cancer cells, respectively. Photos C and D show without and with CB1a (50 µM), on MRC-5 normal cells, respectively. Initial cell concentrations on plates were 2×10^3 cells for all; photos were taken after 5 days incubation; where CB1a was applied it was done so at the end of day 4. Comparing A and B: one can note without CB1a there is significant cellular growth, as to be expected from a cancer cell line; with CB1a there is not, presumably because of a CB1a kill action against cancer cells.

[5] = system: NCI-H460 cancer cells; experiment: Cell plate growth study, photographed; type: cell-based, human; conditions: 50 µM CB1a added after 4 days, photographed after 24 hours, 2×10^3 cells at start
Procedure: as §1, §2

[6] = system: NCI-H460 cancer cells; experiment: Tumor-like spheroid (MCTS) formation, modified hanging drop method; type: cell-based, human; conditions: NCI-H460, 5×10^2 cells
Procedure: We used non-adhesive, bacterial culture-grade polystyrene Petri dishes. Approximately 5×10^2 NCI-H460 cancer cells (3×10^4 cells/ml) were deposited as a drop on the inner face of lids to 90 mm Petri dishes. These lids were then placed on their dishes, which were filled with 10 ml phosphate-buffered saline (PBS). A monolayer of NCI-H460 lung cancer cells was then de-attached by 0.25% Trypsin-EDTA. These dishes were then incubated at 37 C in a 5% CO2 incubator. This modified “hanging drop” method causes the cancer cells to grow in a tumor-like aggregation; which is called a MCTS. After 3 days incubation, CB1a was applied in different concentrations (5, 15, 30, 45 and 60 µM) to different plates and a photo was then taken of each plate after 36 hours. This methodology investigated the post-treatment of CB1a, after tumor formation. The pre-treatment effect of CB1a, before tumor formation, was also studied. CB1a was applied in different concentrations (5, 15, 30, 45 and 60 µM) to different plates and left for 30 minutes before the 0.25% Trypsin-EDTA de-attachment step. After this step, the plates were incubated for 3 days and 36 hours before being photographed.

[7] = system: human NCI-H460 cancer cells xenograft; experiment: Nude mouse xenograft, pre-and-post-treatment of CB1a; type: in vivo; conditions: 50 mg/kg s.c.
Procedure: Afterwards, the animal test experiments were performed.
Six mice were pre-treated with CB1a (50 mg/kg) 3 times in one week prior to them being subcutaneously xenografted with human tumorigenic NCI-H460 lung cancer cells (0.2 ml; 1×10^6 cells/ml). A control was studied in which saline was used instead of CB1a (6 mice in this control group). The dose of CB1a/saline was continued after the xenograft: 5 times per week for 5 weeks. The CB1a/saline injection point was in the dorsolateral neck area and the xenograft cancer cells were transplanted into the abdominal flank area of the mouse (Figure 5A). The distance between these two points is far (∼4 cm) as compared to the length of the mouse (∼6 cm). This distance tested whether CB1a could effectively travel in the blood stream without being destroyed. […] 36 days after the human lung cancer cells were xenografted on to the mouse – the mean volume of the tumor in the CB1a treated mice was just 19.3% of the tumor in the saline treated mice (Figure 5C); the mean weight of the tumor in CB1a treated mice was just 9% of the tumor in saline treated mice (Figure 5D). In other words, the tumor was ∼80% smaller and ∼90% lighter in CB1a treated mice.

[8] = Pharmacokinetics of CB1a in rat blood by competitive ELISA; type: in vivo; conditions: Sprague-Dawley rats, 50 mg/kg i.v., competitive ELISA with 5C5H5 antibody
Text: Using this standard curve, an unknown concentration of CB1a in a test sample can then be found by finding its OD450nm (A/A0) value in an ELISA experiment. […] For our definitive standard curve, we used the one with a dilution rate of 1∶2000 and utilized this dilution rate when assaying test blood samples. We used a primary antibody dilution rate of 1∶5000.
Six […] male Sprague-Dawley rats (230–260 g; sourced from BioLASCO, Yilan, Taiwan) were housed (3 per cage) in a specific pathogen free animal room. The rats were intravenously injected with CB1a peptide (50 mg/kg) and blood samples were then collected from the tail vein of the rats at the following time points: 5, 20, 25, 38.5, 50, 60 and 240 minutes after the CB1a injection (6 samples taken at each of these time points). The blood samples were transferred to heparinized microcentrifuge tubes and centrifuged at 4,000 g for 5 minutes; then frozen for storage at −80°C.
The blood samples were analyzed via a competitive ELISA technique, rather than the more direct ELISA technique described earlier. Blood samples were diluted 100 fold and then mixed with a known concentration of CB1a antibody (2mg/ml in PBST buffer, including 1% BSA). […] The CB1a concentration recorded on the plate is added to the known CB1a concentration that is washed off, bound to the CB1a antibodies, to get the total CB1a concentration. […]

[9] = system: HFL1 cells; experiment: In vitro toxicity to other normal cells; type: cell-based; conditions: data not shown
[10] = system: 3T3/3T6 tissue cells; experiment: In vitro toxicity to other normal cells; type: cell-based; conditions: data not shown
[11] = tumor-bearing nude mice, 0.012 mmol/kg i.v., n = 6
[12] = tumor-bearing nude mice, 0.012 mmol/kg i.v., 5 injections per week, n = 6
[13] = tumor-bearing nude mice, 0.012 mmol/kg i.v.

Compound: CC(=O)O[C@@]12CO[C@@H]1C[C@H](O)[C@@]1(C)C(=O)[C@H](O)C3=C(C)[C@@H](OC(=O)[C@H](O)[C@@H](NC(=O)OC(C)(C)C)c4ccccc4)C[C@@](O)([C@@H](OC(=O)c4ccccc4)[C@H]21)C3(C)C [docetaxel, reference compound]
- Selectivity index (SI) of drugs presently on the market [1]: less than one
- Patients having grade 3 or 4 neutropenia (haematological toxicity) [2]: 86%
- Mean tumor volume at week 4 ([3]; n = 6): 3,200 mm^3
- Mean body weight at week 4 [3, 11]: 25 g
- Mean body weight at week 2 (maximum) [3, 12]: 27 g
- Body weight course [3, 13]: weight loss
- Mean body weight at week 5 [3, 13]: 21 g
- Mean tumor weight as % of that in saline treated mice ([3]; 0.012 mmol/kg i.v., n = 6): 73%

Compound: H-KWKVFKKIEKKWKVFKKIEKAGPKWKVFKKIEK-OH [CB1a]
- Cell number on plate versus plate without CB1a [4]: does not kill these normal cells
- Cell number on plate versus plate without CB1a [5]: significantly less cells
- Spheroid formation, post-treatment with CB1a ([6]; CB1a 5, 15, 30, 45, 60 µM applied after 3 days incubation, photo after 36 hours): tumor spheroids can still be observed
- Spheroid formation, pre-treatment with CB1a ([6]; CB1a 5-60 µM applied 30 minutes before de-attachment, higher CB1a concentrations): no spheroids form
- Mean tumor volume as % of that in saline treated mice ([7]; 36 days after xenograft, pre-and-post-treatment, n = 6): 19.3%
- Mean tumor weight as % of that in saline treated mice ([7]; day 36, sacrificed, pre-and-post-treatment, n = 6): 9%
- Tumor lighter than in saline treated mice ([7]; day 36, pre-and-post-treatment): ~90%
- Tumor smaller than in saline treated mice ([7]; day 36, pre-and-post-treatment): ~80%
- Deaths during the experiment ([7]; nude mice, 3 times in week before xenograft then 5 times per week for 5 weeks, n = 6): None of the mice died
- Mean body weight compared with saline treated mice ([7]; nude mice, pre-and-post-treatment, n = 6): comparable to that of saline treated mice
- Time for which a CB1a concentration that can kill cancer cells (≥25 µM or ≥105 µg/ml) endures in rat blood [8]: around 25 minutes
- half-life ([8]; male, rat, iv, tail vein blood 5-240 minutes, n = 6): 16.4 min
- Killing of normal cells at concentrations that kill lung cancer cells [9]: do not kill
- Killing of normal cells at concentrations that kill lung cancer cells [10]: do not kill
- Mean tumor volume at week 4 ([3]; n = 6): 3,100 mm^3
- Mean body weight at week 4 [3, 11]: 30.5 g
- Mean body weight at the start [3, 12]: 25.5 g
- Body weight course [3, 13]: gained weight at the same trajectory as saline treated mice
- Mean body weight at week 5 [3, 13]: 32 g
- Mean tumor weight as % of that in saline treated mice ([3]; 0.012 mmol/kg i.v., n = 6): 59%

Compound: COc1cccc2c1C(=O)c1c(O)c3c(c(O)c1C2=O)C[C@@](O)(C(=O)CO)C[C@@H]3O[C@H]1C[C@H](N)[C@H](O)[C@H](C)O1 [doxorubicin]
- Selectivity index (SI) of drugs presently on the market [1]: less than one

— PMC4195615, “Inhibition Effect of a Custom Peptide on Lung Tumors” (PLoS ONE, 2014)
